Results on one compound are retold here after patent publication US20020137779A1, “Use of L-2-oxothiazolidine-4-carboxylic acid for the treatment of type 2 diabetes” (Advanced Biochemicals Inc., priority 2001, published 2002).

In assay [1] the test system is type 2 diabetes mice (C57BL/KsJ-db/db Jcl). The assay can be described thus: serum insulin after a single oral dose and glucose loading (Example 2). The assay is classed as in vivo, mouse. The following applies: for Conc. of insulin: glucose 1 g/kg i.p. after 5 hours, serum 30 minutes later. As for the experimental part: Second step; Determining optimum L-2-oxothiazolidine-4-carboxylic acid concentration which is appropriate for enhancing insulin secretion and lowering blood glucose levels in a type 2 diabetes mouse, by administering 0-400 mg/kg of L-2-oxothiazolidine-4-carboxylic acid orally,
The present example is to show an appropriate concentration of L-2-oxothiazolidine-4-carboxylic acid for the purpose of improving the ability of insulin secretion and lowering blood glucose levels, by varying the concentrations of L-2-oxothiazolidine-4-carboxylic acid in a single oral dose to type 2 diabetes mice.
The present inventors ascertained the effect of various concentrations of L-2-oxothiazolidine-4-carboxylic acid on lowering blood glucose level and insulin secretion. in which experiments enough sterilized-feed and water was given to 6 week old C57BL mice(Samtako, purchased from Clea, Japan) in the light condition of 12L: 12D for a week, bred the mice in the incubator of A.B.J Co.(Building 1 Chonbuk National University Medical School, Chonju, Korea) for a week, and no feed but water was given to the mice for 13 hours before insulin and glucose levels were measured.
0.2 ml of PBS (pH 7.4) was orally given to the control group(5 mice) using feeding needle, and 1.5-400 mg/kg of L-2-oxothiazolidine-4-carboxylic acid, dissolved in 0.2 ml of PBS and its pH was adjusted to 7.2 with 3 N NaOH(Junsei, Japan), was orally administered to experimental group(5 mice). After 5 hours of the drug administration, glucose(Sigma, USA) was injected intraperitoneally at the concentration of 1 g/kg, and incubated the mice for 30 minutes. Immediately after the mice were anesthetized with ether, the thoraces of the mice was incised to take blood, serum was isolated, and the insulin concentration of the mice-serum was measured by radioimmunoassay using rat insulin assay kit(Amersham Pharmacia Bio Co., USA).

In assay [2] the test system is pancreatic islets of type 2 diabetes mice. The assay can be described thus: morphological examination of pancreatic islets, hematoxylin-eosine and anti-insulin immunohistochemistry (Example 6). The assay is classed as in vivo, mouse. The note with it: 80 mg/kg for four weeks, 120 min after glucose 1 g/kg i.p. As to the method: Sixth step: Identifying the ability of insulin secretion of the control group and the type 2 diabetes mouse to which 80 mg/kg of L-2-oxothiazolidine-4-carboxylic acid for 4 weeks determined by immunohistochemical staining with anti-insulin antibody.
L-2-oxothiazolidine-4-carboxylic acid or PBS alone was administered to 3 mice in each group, 1 g/kg of glucose was intraperitoneally injected in the fasted state, and they were sacrificed by cervical dislocation after 120 min. of the injection. Immediately, the abdominal region was incised, pancreases were then removed from the mice and fixed more than 12 hours in a cold solution of 4% paraformaldehyde in PBS(pH 7.4, Sigma, USA). Pancreas separated free of intestine and adipose tissue(fatty tissue), rinsed three times with fresh fixing solution, and the fixed tissues were processed routinely for paraffin embedding. The tissue sections were cut off at 5 ^μm interval using microtome(Sandon, Germany) from the paraffin embedding, and adhered to a slide coated with poly-L-lysine(Sigma, USA) for immunohistochemistry.
To remove the paraffin from the slides on which pancreatic tissue was coated, the slides were repeatedly treated with xylene for 5 min., and the tissue sections were rehydrated with a series of 100-70% alcohol and incubated with PBS(pH 7.4) for 5 minutes. […]

The next assay relates to mice. The note with it: mice pre-treated with L-2-oxothiazolidine-4-carboxylic acid, acetaminophen 9.5 mmol/kg oral; cited from earlier work.
The subject of assay [3] is type 2 diabetes mice (C57BL/KsJ-db/db Jcl). Description: serum insulin levels after glucose intake, single oral administration (Example 3). The following applies: for concentration of insulin / increase of insulin concentration vs control group: 30 min after glucose intake. The format is in vivo, mouse. As to the method: (§1) Third step; Determining the abilities of lowering blood glucose level and increasing insulin secretion ability following glucose loading, by administering a single dose of 8-80 mg/kg of L-2-oxothiazolidine-4-carboxylic acid to a type 2 diabetes mouse, Fourth step; Examining the effect of long term administration of L-2-oxothiazolidine-4-carboxylic acid on lowering blood glucose levels,
(§2) Under the same breeding condition as in EXAMPLE 2, no feed but water was given to 7 week old type 2 diabetes mice (C57BL/KsJ-db/db Jel, Clea, Japan) for 13 hours. 0.2 ml of PBS was orally given to the control group(5 mice) using feeding needle, and 8-80 mg/kg of L-2-oxothiazolidine-4-carboxylic acid dissolved in 0.2 ml of PBS was orally administered to the experimental group(5 mice). After 5 hours of drug administration, 1 g/kg of glucose (Sigma, USA) was intraperitoneally injected and the mice were maintained for 30 to 120 minutes. The blood glucose levels of type 2 diabetes mice at various time points were measured by the glucose oxidase method using a glucose analyzer(One-touch Basic, Lifescan, USA), and serum insulin levels were determined using a radioimmunoassay, as described in EXAMPLE 2.

For assay [4] the test system is unchanged. The assay can be described thus: blood glucose levels after glucose intake, single oral administration (Example 3). The format is in vivo, mouse. The following applies: for blood glucose level / decrease of blood glucose level vs control group: 30 min after glucose intake. As for the experimental part:
as §1, §2

Take `O=C1NC(C(=O)O)CS1` [OTC, L-2-oxothiazolidine-4-carboxylic acid]: the “insulin secretion ability compared to the control group” value is “improvement of insulin secretion ability” in assay [1] (3-20 mg/kg single oral dose, p<0.05); “more than 2 times” in assay [1] (40-160 mg/kg single oral dose, p<0.001); “salient improvement of insulin secretion ability” in assay [1] (over 400 mg/kg single oral dose, p<0.005). Also, the Conc. of insulin in assay [1] (OTC 1.5 mg/kg single oral dose) is 878 pmol/L; in assay [1] (OTC 3 mg/kg single oral dose) it was 908 pmol/L; in assay [1] (OTC 10 mg/kg single oral dose) it was 1103 pmol/L; in assay [1] (OTC 20 mg/kg single oral dose), 1,205 pmol/l; in assay [1] (OTC 40 mg/kg single oral dose) it was 1,535 pmol/l; in assay [1] (OTC 80 mg/kg single oral dose), 1,750 pmol/l. Further, the figures for the Conc. of insulin in assay [1] (OTC 160 mg/kg single oral dose) and in assay [1] (OTC 400 mg/kg single oral dose) were 1684 pmol/L and 1350 pmol/L, respectively. In addition, the “densities of the capsule and the β-cells in the capsule, hematoxylin-eosine staining” value in assay [2] is “high”. For the same compound, the “positive response to anti-insulin antibody of pancreatic β-islet cells” value in assay [2] was “distinctly increased”. Moreover, the mortality rate entry in the assay on mice is on record as “less than 10%”. Further, the concentration of insulin in assay [3] (40 mg/kg single oral dose) is given as 1,650±103 pmol/1; in assay [3] (80 mg/kg single oral dose), 1,760±94 pmol/l. The “increase of insulin concentration vs control group” value was 26.5% in assay [3] (40 mg/kg single oral dose) and 35.4% in assay [3] (80 mg/kg single oral dose). Moreover, the “duration of the improvement of insulin secretion after the intake of glucose” value in assay [3] (40-80 mg/kg single oral dose) is on record as “about 120 min”. In addition, the blood glucose level is 295 ± 8.5 mg/dL in assay [4] (40 mg/kg single oral dose) and 269 ± 6.85 mg/dL in assay [4] (80 mg/kg single oral dose). Besides, the “decrease of blood glucose level vs control group” value in assay [4] (40 mg/kg single oral dose) was found to be 34.27%; in assay [4] (80 mg/kg single oral dose), 40.01%. For the same compound, the “duration of the lowering effect of blood glucose levels after the intake of glucose” value in assay [4] (40-80 mg/kg single oral dose) was “about 60 min”.
